Assay results: patent EP3714904B1, “IMINODIACETIC ACID SUBSTITUTED CYCLODEXTRINS AS POTENTIATORS OF BETA-LACTAM ANTIBIOTICS” (NATIONAL CENTER FOR SCIENTIFIC RESEARCH "DEMOKRITOS" (NCSRD), priority 2019, dated 2020)

System: Klebsiella pneumoniae
Experiment: MIC of β-lactams alone or with 50 µM IDACYD against clinical isolates
Type: cell-based
Protocol: Further the in-vitro inhibitory activity of IDACYDs was tested against highly resistant pathogens. […] Table 2: Collection of clinical isolates used for in-vitro evaluation

[1] = isolate LA-34 (VIM, CMY), second entry of Table 3
[2] = isolate LAR-26I/15 (NDM, VIM, CTXM)
[3] = isolate LAR-37II/15 (NDM, VIM, CTXM)
[4] = isolate LAR-38I/15 (VIM, NDM, CTXM)
[5] = isolate LAR-7547 (NDM, VIM, CTXM)
[6] = isolate TZAN-59 (β-lactamase: None)

`CO[C@@H]1[C@@H](OC)[C@H]2O[C@H]3[C@H](OC)[C@@H](OC)[C@@H](O[C@H]4[C@H](OC)[C@@H](OC)[C@@H](O[C@H]5[C@H](OC)[C@@H](OC)[C@@H](O[C@H]6[C@H](OC)[C@@H](OC)[C@@H](O[C@H]7[C@H](OC)[C@@H](OC)[C@@H](O[C@H]8[C@H](OC)[C@@H](OC)[C@@H](O[C@@H]1[C@@H](CN(CC(=O)O)CC(=O)O)O2)O[C@@H]8CN(CC(=O)O)CC(=O)O)O[C@@H]7CN(CC(=O)O)CC(=O)O)O[C@@H]6CN(CC(=O)O)CC(=O)O)O[C@@H]5CN(CC(=O)O)CC(=O)O)O[C@@H]4CN(CC(=O)O)CC(=O)O)O[C@@H]3CN(CC(=O)O)CC(=O)O` [β-IDACYD] was tested, and the “Meropenem /50µM β-IDACYD MIC” value (isolate LA-34 (VIM, CMY), first entry of Table 3) was 0.25 µg/mL, the “Imipenem /50µM β-IDACYD MIC” value [1] was 0.25 µg/mL and the “Meropenem /50µM β-IDACYD MIC” value [1] was 0.25 µg/mL. For the same compound, the “Imipenem /50µM β-IDACYD MIC” value (isolate LA-38 (NDM)) was <0.125 µg/mL, the “Meropenem /50µM β-IDACYD MIC” value (isolate LA-38 (NDM)) was 0.5 µg/mL and the “Ceftazidime/ 50µM β-IDACYD MIC” value (isolate LA-82/16 (VIM, SHV)) was 32 µg/mL. For the same compound, the “Imipenem /50µM β-IDACYD MIC” value (isolate LA-82/16 (VIM, SHV)) was <0.125 µg/mL, the “Meropenem /50µM β-IDACYD MIC” value (isolate LA-82/16 (VIM, SHV)) was 0.25 µg/mL and the “Ceftazidime/ 50µM β-IDACYD MIC” value (isolate LA-109/16 (VIM, CTXM)) was 32 µg/mL. The “Imipenem /50µM β-IDACYD MIC” value (isolate LA-109/16 (VIM, CTXM)) was <0.125 µg/mL, the “Meropenem /50µM β-IDACYD MIC” value (isolate LA-109/16 (VIM, CTXM)) was <0.25 µg/mL and the “Imipenem /50µM β-IDACYD MIC” value (isolate LA-419/16 (NDM,CTXM)) was <0.125 µg/mL. For the same compound, the “Meropenem /50µM β-IDACYD MIC” value (isolate LA-419/16 (NDM,CTXM)) was <0.25 µg/mL, the “Imipenem /50µM β-IDACYD MIC” value (isolate LA-470/17 (NDM)) was 8 µg/mL and the “Meropenem /50µM β-IDACYD MIC” value (isolate LA-470/17 (NDM)) was 32 µg/mL. The “Imipenem /50µM β-IDACYD MIC” value [2] was 0.125 µg/mL, the “Meropenem /50µM β-IDACYD MIC” value [2] was 0.5 µg/mL and the “Imipenem /50µM β-IDACYD MIC” value [3] was <0.125 µg/mL. For the same compound, the “Meropenem /50µM β-IDACYD MIC” value [3] was <0.25 µg/mL, the “Imipenem /50µM β-IDACYD MIC” value [4] was <0.125 µg/mL and the “Meropenem /50µM β-IDACYD MIC” value [4] was <0.25 µg/mL. For the same compound, the “Imipenem /50µM β-IDACYD MIC” value (isolate LAR-40II/15 (KPC)) was 16 µg/mL, the “Meropenem /50µM β-IDACYD MIC” value (isolate LAR-40II/15 (KPC)) was 64 µg/mL and the “Imipenem /50µM β-IDACYD MIC” value (isolate LAR-2873 (VIM-12)) was <0.125 µg/mL. For the same compound, the “Meropenem /50µM β-IDACYD MIC” value (isolate LAR-2873 (VIM-12)) was <0.25 µg/mL, the “Ceftazidime/ 50µM β-IDACYD MIC” value (isolate LAR-4011/15) was 32 µg/mL and the “Imipenem /50µM β-IDACYD MIC” value [5] was 4 µg/mL. The “Meropenem /50µM β-IDACYD MIC” value [5] was 16 µg/mL, the “Imipenem /50µM β-IDACYD MIC” value (isolate SEC-2 (VIM)) was 2 µg/mL and the “Meropenem /50µM β-IDACYD MIC” value (isolate SEC-2 (VIM)) was 2 µg/mL. The “Imipenem /50µM β-IDACYD MIC” value (isolate SEC-4 (VIM)) was 2 µg/mL, the “Meropenem /50µM β-IDACYD MIC” value (isolate SEC-4 (VIM)) was 1 µg/mL and the “Imipenem /50µM β-IDACYD MIC” value [6] was 0.5 µg/mL. For the same compound, the “Meropenem /50µM β-IDACYD MIC” value [6] was 0.5 µg/mL, the “Ceftazidime/ 50µM β-IDACYD MIC” value (isolate UoA 12/227 (VIM)) was <0.25 µg/mL and the “Imipenem /50µM β-IDACYD MIC” value (isolate UoA 12/227 (VIM)) was <0.125 µg/mL. For the same compound, the “Meropenem /50µM β-IDACYD MIC” value (isolate UoA 12/227 (VIM)) was <0.25 µg/mL, the “Ceftazidime/ 50µM β-IDACYD MIC” value (isolate UoA 1995 (VIM)) was <0.25 µg/mL and the “Imipenem /50µM β-IDACYD MIC” value (isolate UoA 1995 (VIM)) was <0.125 µg/mL. For the same compound, the “Meropenem /50µM β-IDACYD MIC” value (isolate UoA 1995 (VIM)) was <0.25 µg/mL.
